Data on 59 molecules can be found in US20060122181A1, “Heteroaromatic pentacyclic compound and medicinal use thereof” (Japan Tobacco Inc., priority 2003, published 2006).

As usually defined, the melting point is the temperature of the solid-liquid transition.

The molecule `CCC(CC)c1ccc(COc2ccc(-c3csc(CN(CC(=O)O)C(=O)c4ccc(C)cc4)n3)cc2)cc1` [Example 3-23] showed a melting point of 142 to 144 °C.

Take `CN(Cc1ccc(CC(C)(C)C)cc1)c1ccc(-c2csc(CN(CC(=O)O)C(=O)Nc3ccccc3)n2)cc1` [Example 3-60]: the melting point is 152 to 153 °C.

In the case of `CCC(CC)c1ccc2c(c1)nc(-c1csc(COc3ccc(C(=O)O)cc3)n1)n2Cc1ccc(C(C)C)cc1` [Example 3-129], the melting point is 139 to 142 °C.

For the molecule `CN(Cc1ccc(CC(C)(C)C)cc1)c1ccc(-c2csc(CN(CC(=O)O)Cc3ccccc3)n2)cc1` [Example 3-27], the melting point fell in the range of 159 to 160 °C.

Molecule `CCCC(CCC)c1ccc(OCc2ccc(-c3csc(CN4Cc5ccccc5C[C@@H]4C(=O)O)n3)cc2)cc1` [Example 1-47] showed a melting point of 77 to 82 °C.

`CN(c1ccc(C(=O)O)cc1)c1nc(-c2ccc(C(=O)Nc3ccc(C4CCCCC4)cc3)cc2)cs1` [Example 1-52]: the melting point is 250 °C (dec.).

`CCCC(CCC)c1ccc(OCc2ccc(-c3ccc(CN(CC(=O)O)Cc4nc5ccccc5[nH]4)s3)cc2)cc1` [Example 4-8] registered a melting point of 173 to 175 °C.

Consider `CCCC(CCC)c1ccc(OCc2ccc(-c3csc(COc4ncccc4C(=O)O)n3)cc2)cc1` [Example 1-76], for which the melting point is 154.5 °C.

`CC(C)c1ccc(CN(CC(=O)O)Cc2nc(-c3ccc(N(Cc4ccc(C(C)C)cc4)C(C)C)cc3)cs2)cc1` [Example 3-45] returned a melting point of 77 to 82 °C.

`CN(Cc1ccc(-c2csc(N(C)Cc3ccc(C(=O)O)cc3)n2)cc1)c1ccc(C2CCCCC2)cc1` [Example 1-18] displayed a melting point of 190 to 192 °C.

As for `CN(CC(=O)O)Cc1nc(-c2ccc(N(C)Cc3ccc(C4CCCCC4)cc3)cc2)cs1` [Example 3-80], the melting point fell in the range of 152 to 155 °C.

`CCCC(CC)c1ccc(N(Cc2ccc(-c3csc(CN4CCC(C(=O)O)CC4)n3)cc2)C(C)C)cc1` (centres unmarked) [Example 1-152] yielded a melting point of 149 to 151 °C.

As to `CC(NCc1nc(-c2ccc(N(C)Cc3ccc(C4CCCCC4)cc3)cc2)cs1)C(=O)O` (centres unmarked) [Example 3-78], the melting point lay in the range of 135 to 138 °C.

Molecule `CN(Cc1ccc(CC(C)(C)C)cc1)c1ccc(-c2csc(CN3Cc4ccccc4CC3C(=O)O)n2)cc1` (centres unmarked) [Example 3-74] returned a melting point of 175 to 177 °C.

On to `CN(Cc1ccc(-c2ccccc2)cc1)c1ccc(-c2csc(CN(CC(=O)O)Cc3ccccc3)n2)cc1` [Example 3-37], for which the melting point is 167 to 170 °C.

In turn, `CCCC(CCC)c1ccc(OCc2ccc(-c3ccc(CN(CC(=O)O)Cc4cccc(C(=O)O)c4)s3)cc2)cc1` [Example 4-76] registered a melting point of 202.8 to 206.4 °C.

`CCCC(CCC)c1ccc(OCc2ccc(-c3csc(COc4ccc(C(=O)O)cc4)n3)cc2)cc1` [Example 1-49] displayed a melting point of 199 to 202 °C.

The molecule `CCCC(CCC)c1ccc(COc2ccc(-c3csc(COc4cncc(C(=O)O)c4)n3)c(C)c2)cc1` [Example 3-114] had a melting point of 148 to 150 °C.

`CC(C)CCN(CC(=O)O)Cc1nc(-c2ccc(N(C)Cc3ccc(C4CCCCC4)cc3)cc2)cs1` [Example 3-91] had a melting point of 153 to 154 °C.

Take `CN(Cc1ccc(C2CCCCC2)cc1)c1ccc(-c2csc(CN(C)c3ccc(C(=O)O)cn3)n2)cc1` [Example 3-84]: the melting point lay within 226 to 228 °C.

Molecule `CCCC(CCC)c1ccc(OCc2ccc(-c3csc(CN(CC(=O)O)C(=O)COc4ccccc4)n3)cc2)cc1` [Example 1-129] showed a melting point of 143 to 145 °C.

On to `CCCC(CCC)c1ccc(N(C)Cc2ccc(-c3csc(CSc4ccc(C(=O)O)cc4)n3)cc2)cc1` [Example 1-14], for which the melting point fell in the range of 122 to 124 °C.

`CC(C)CCC1(C(=O)O)CCN(Cc2nc(-c3ccc(N(C)Cc4ccc(C5CCCCC5)cc4)cc3)cs2)CC1` [Example 3-68] returned a melting point of 233 to 235 °C.

In turn, `CCCC(CCC)c1ccc(COc2ccc(-c3csc(CN(CC(=O)O)C(=O)c4ccccc4)n3)cc2)cc1` [Example 3-22] came in with a melting point of 141 to 144 °C.

`CCCC(CCC)c1ccc(N(C)Cc2ccc(-c3csc(COc4ccc(C(=O)O)cc4)n3)cc2)cc1` [Example 1-5] yielded a melting point of 161 to 163 °C.

Regarding `CCC(CC)c1ccc(N(Cc2ccc(-c3csc(N(C)Cc4ccc(C(=O)O)cc4)n3)cc2)C(C)C)cc1` [Example 1-20], the melting point fell in the range of 150 to 153 °C.

Turning to `CCCC(CCC)c1ccc(OCc2ccc(-c3csc(CN(CCN)C(=O)c4ccc(C(=O)O)cn4)n3)cc2)cc1.Cl`, the melting point lay within 227 to 229 °C.

In turn, `CCCC(CCC)c1ccc(N(Cc2ccc(-c3csc(COc4cc(C(=O)O)ccc4NC(=O)C(C)C)n3)cc2)C(C)C)cc1` [Example 1-113] yielded a melting point of 166 to 168 °C.

`CN(Cc1ccccc1)c1ccc(-c2csc(CN(CC(=O)O)Cc3ccc(Cl)c(Cl)c3)n2)cc1` [Example 3-51] had a melting point of 69 to 72 °C.

`CC(C)CN(Cc1ccc(-c2csc(CN(CC(=O)O)C(=O)Nc3ccccc3)n2)cc1)c1ccc(C(C)(C)C)cc1` [Example 1-27] gave a melting point of 119 °C.

The molecule `CCOC(=O)c1ccc(OCc2nc(-c3nc4cc(C(CC)CC)ccc4n3Cc3ccc(C(C)C)cc3)cs2)cc1` [Example 3-128] yielded a melting point of 106 to 107 °C.

`CCC(CC)c1ccc(N(Cc2ccc(-c3csc(COc4cc(C(=O)O)ccc4[N+](=O)[O-])n3)cc2)C(C)C)cc1` [Example 1-93] yielded a melting point of 198 to 200 °C.

With `O=C(O)c1cccc(C2CCN(Cc3nc(-c4ccc(OCc5cc(C(F)(F)F)cc(C(F)(F)F)c5)cc4)cs3)CC2)c1` [Example 1-174], the melting point lay in the range of 222 to 228 °C.

`CC(C)CN(Cc1ccc(-c2csc(CN(CC(=O)O)C(=O)N3CCOCC3)n2)cc1)c1ccc(C(C)(C)C)cc1` [Example 1-59] gave a melting point of 138 °C.

`CCCC(CCC)c1ccc(CN(CC(=O)O)Cc2nc(-c3ccc(N(C)Cc4ccccc4)cc3)cs2)cc1` [Example 3-48] had a melting point of 137 to 140 °C.

As to `CCC(CC)N(Cc1ccc(-c2csc(CN3Cc4ccccc4C[C@H]3C(=O)O)n2)cc1)c1ccc(C(C)C)cc1` [Example 1-35], the melting point lay in the range of 110 to 113 °C.

`CCCC(CCC)c1ccc(OCc2ccc(-c3csc(CN(CC(=O)O)Cc4cn(C)c5ccccc45)c3)cc2)cc1` [Example 4-86] yielded a melting point of 170.5 to 171.9 °C.

Consider `CN(Cc1ccc(C2CCCCC2)cc1)c1ccc(-c2csc(CN3CCCC(C(=O)O)C3)n2)cc1` (centres unmarked) [Example 3-66], for which the melting point lay within 176 to 180 °C.

Molecule `CCC(CC)c1ccc(N(Cc2ccc(-c3csc(COc4cccc(C(=O)O)c4)n3)cc2)C(C)C)cc1` [Example 1-91] had a melting point of 165 to 167 °C.

In turn, `CN(Cc1ccccc1)c1ccc(-c2csc(CN(CC(=O)O)C(=O)Cc3csc4ccccc34)n2)cc1` [Example 3-56] showed a melting point of 186 to 188 °C.

As to `Cc1ccc(OCc2ccc(-c3csc(CN(CC(=O)O)Cc4ccccc4)n3)cc2)c(C(C)(C)C)c1` [Example 1-43], the melting point is 146 °C.

The molecule `CCCC(CCC)c1ccc(OCc2ccc(-c3ccc(C(=O)N(CC(=O)O)Cc4cccnc4)s3)cc2)cc1` [Example 4-47] gave a melting point of 153 to 156 °C.

In turn, `CCCC(CCC)c1ccc(N(Cc2ccc(-c3ccc(COc4cncc(C(=O)O)c4)s3)cc2)C(C)C)cc1` [Example 4-18] gave a melting point of 93 to 98 °C.

For the molecule `CCCC(CCC)c1ccc(N(Cc2ccc(-c3csc(COc4cncc(C(=O)O)c4)n3)cc2)C(C)C)cc1.[Na+]` [Example 1-68], the melting point was 185 °C (dec.).

For the molecule `CC(C)Cc1ccc(CN(C)c2ccc(-c3csc(CNC(Cc4ccc(Cl)cc4)C(=O)O)n3)cc2)cc1` (centres unmarked) [Example 3-79], the melting point fell in the range of 199 to 204 °C.

Regarding `CN(Cc1ccc(CC(C)(C)C)cc1)c1ccc(-c2csc(CN(C)C(C(=O)O)c3ccccc3)n2)cc1` (centres unmarked) [Example 3-88], the melting point was 171 to 173 °C.

Molecule `CCC(CC)c1ccc(N(Cc2ccc(-c3ccc(COc4cncc(C(=O)O)c4)s3)cc2)C(C)C)cc1` [Example 4-17] showed a melting point of 160 to 164 °C.

Molecule `CN(Cc1ccc(C2CCCCC2)cc1)c1ccc(-c2csc(CN3CCN(CC(=O)O)CC3)n2)cc1` [Example 3-111] registered a melting point of 190 to 191 °C.

With `CCCC(CCC)c1ccc(OCc2ccc(-c3csc(CN(CC(=O)O)C(=O)COc4ccc(C)cc4)n3)cc2)cc1` [Example 1-130], the melting point lay within 170 to 172 °C.

Regarding `CN(Cc1ccc(CC(C)(C)C)cc1)c1ccc(-c2csc(CN(C)C(Cc3ccccc3)C(=O)O)n2)cc1` (centres unmarked) [Example 3-89], the melting point fell in the range of 160 to 161 °C.

As for `CCCC(CCC)c1ccc(N(Cc2ccc(-c3ccc(CN(CC(=O)O)Cc4nc(C(C)(C)C)cs4)s3)cc2)C(C)C)cc1` [Example 4-20], the melting point is 78 to 82 °C.

`CCCC(CCC)c1ccc(N(C)Cc2ccc(-c3csc(CN(C)S(=O)(=O)CCCC(=O)[O-])n3)cc2)cc1.[Na+]` [Example 1-16] came in with a melting point of 217 to 220 °C.

`CCCC(CCC)c1ccc(COc2ccc(-c3csc(CN4CCC(c5ccccc5C(=O)O)CC4)n3)cc2)cc1` [Example 1-164] returned a melting point of 170 to 172 °C.

The molecule `CCCC(CCC)c1ccc(OCc2ccc(-c3ccc(CN(CC(=O)O)S(C)(=O)=O)s3)cc2)cc1` [Example 4-49] showed a melting point of 133.1 to 136.5 °C.

For `CCC(CC)c1ccc(N(Cc2ccc(-c3csc(COc4cc(OC)cc(C(=O)O)c4)n3)cc2)C(C)C)cc1` [Example 1-63], the melting point is 131 °C.

With `CCCC(CCC)c1ccc(OCc2ccc(-c3csc(CN(CC(=O)O)Cc4ncc(C(C)(C)C)o4)c3)cc2)cc1` [Example 4-29], the melting point stood at 120.5 °C.

Molecule `CCCC(CCC)c1ccc2c(c1)nc(-c1csc(COc3ccc(C(=O)O)cc3)n1)n2Cc1cccc(C)n1` [Example 1-159] showed a melting point of 113 to 116 °C.

`CCC(CC)c1ccc(N(Cc2ccc(-c3csc(COc4ccc(C(=O)O)cc4)n3)cc2)C(C)C)cc1` [Example 1-2] returned a melting point of 219 °C.

In the case of `CCCC(CCC)c1ccc(Cn2c(-c3csc(CN4CCN(c5cccc(C(=O)O)c5)CC4)n3)nc3ccccc32)cc1` [Example 1-170], the melting point lay within 179.8 to 181.2 °C.
